Results reported in patent US9296757B2, “Substituted benzothienopyrimidines” (BAYER PHARMA AKTIENGESELLSCHAFT, priority 2012, dated 2016).

The molecules below were run against human full-length MKNK1 (Homo sapiens (Human), UniProt Q9BUB5, T344D) (assay: MKNK1 kinase high ATP assay (TR-FRET)). Conditions: high ATP (2 mM final), 15 min preincubation with enzyme.
Format: biochemical
Description: MKNK1-inhibitory activity at high ATP of compounds of the present invention after their preincubation with MKNK1 was quantified employing the TR-FRET-based MKNK1 high ATP assay as described in the following paragraphs.
A recombinant fusion protein of Glutathione-S-Transferase (GST, N-terminally) and human full-length MKNK1 (amino acids 1-424 and T344D of accession number BAA 19885.1), expressed in insect cells using baculovirus expression system and purified via glutathione sepharose affinity chromatography, was purchased from Carna Biosciences (product no 02-145) and used as enzyme. As substrate for the kinase reaction the biotinylated peptide biotin-Ahx-IKKRKLTRRKSLKG (C-terminus in amide form) was used, which can be purchased e.g. from the company Biosyntan (Berlin-Buch, Germany).
For the assay 50 nL of a 100 fold concentrated solution of the test compound in DMSO was pipetted into a black low volume 384 well microtiter plate (Greiner Bio-One, Frickenhausen, Germany), 2 μL of a solution of MKNK1 in aqueous assay buffer [50 mM HEPES pH 7.5, 5 mM MgCl2, 1.0 mM dithiothreitol, 0.005% (v/v) Nonidet-P40 (Sigma)] was added and the mixture was incubated for 15 min at 22° C. to allow pre-binding of the test compounds to the enzyme before the start of the kinase reaction. Then the kinase reaction was started by the addition of 3 μL of a solution of adenosine-tri-phosphate (ATP, 3.3 mM=>final conc. in the 5 μL assay volume is 2 mM) and substrate (0.1 μM=>final conc. in the 5 μL assay volume is 0.06 μM) in assay buffer and the resulting mixture was incubated for a reaction time of 30 min at 22° C. The concentration of MKNK1 was adjusted depending of the activity of the enzyme lot and was chosen appropriate to have the assay in the linear range, typical concentrations were in the range of 0.003 μg/mL. The reaction was stopped by the addition of 5 μL of a solution of TR-FRET detection reagents (5 nM streptavidine-XL665 [Cisbio Bioassays, Codolet, France] and 1 nM anti-ribosomal protein S6 (pSer236)-antibody from Invitrogen [#44921G] and 1 nM LANCE EU-W1024 labeled ProteinG [Perkin-Elmer, product no. AD0071]) in an aqueous EDTA-solution (100 mM EDTA, 0.1% (w/v) bovine serum albumin in 50 mM HEPES pH 7.5).
The resulting mixture was incubated for 1 h at 22° C. to allow the formation of complex between the phosphorylated biotinylated peptide and the detection reagents. Subsequently the amount of phosphorylated substrate was evaluated by measurement of the resonance energy transfer from the Eu-chelate to the streptavidine-XL. Therefore, the fluorescence emissions at 620 nm and 665 nm after excitation at 350 nm were measured in a TR-FRET reader, e.g. a Rubystar (BMG Labtechnologies, Offenburg, Germany) or a Viewlux (Perkin-Elmer). The ratio of the emissions at 665 nm and at […] was taken as the measure for the amount of phosphorylated substrate. The data were normalised (enzyme reaction without inhibitor=0% inhibition, all other assay components but no enzyme=100% inhibition).

Chain of human full-length MKNK1 (Q9BUB5 other isoform, or with tags, fused parts or gaps T344D): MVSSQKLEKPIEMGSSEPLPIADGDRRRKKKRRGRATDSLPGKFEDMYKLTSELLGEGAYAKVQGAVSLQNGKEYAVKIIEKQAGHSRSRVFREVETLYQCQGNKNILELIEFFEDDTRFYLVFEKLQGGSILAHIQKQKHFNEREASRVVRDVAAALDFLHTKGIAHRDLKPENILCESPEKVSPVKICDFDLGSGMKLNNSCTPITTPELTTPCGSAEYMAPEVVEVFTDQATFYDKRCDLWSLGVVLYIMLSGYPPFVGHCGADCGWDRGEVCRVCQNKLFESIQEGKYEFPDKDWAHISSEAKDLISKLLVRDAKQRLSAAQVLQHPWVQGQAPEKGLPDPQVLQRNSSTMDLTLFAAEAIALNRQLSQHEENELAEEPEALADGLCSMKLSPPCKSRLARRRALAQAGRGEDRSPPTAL

Row | SMILES | IC50
1 | CC(C)NC(=O)NCC1CCc2c(sc3ncnc(Nc4ccc5[nH]c(=O)sc5c4)c23)C1 (racemic) [Example 22, (RS)-1-({4-[(2-Oxo-2,3-dihydro-1,3-benzothiazol-6-yl)amino]-5,6,7,8-tetrahydro[1]benzothieno[2,3-d]pyrimidin-7-yl}methyl)-3-propan-2-ylurea] | 59 nM
2 | CC(C)OC(=O)NCC1CCc2c(sc3ncnc(Nc4ccc5[nH]c(=O)sc5c4)c23)C1 (racemic) [Example 24, (RS)-Propan-2-yl ({4-[(2-oxo-2,3-dihydro-1,3-benzothiazol-6-yl)amino]-5,6,7,8-tetrahydro[1]benzothieno[2,3-d]pyrimidin-7-yl}methyl)carbamate] | 62 nM
3 | CC(O)C(=O)NCC1CCc2c(sc3ncnc(Nc4ccc5[nH]c(=O)sc5c4)c23)C1 (racemic) [Example 26, (2RS)-2-Hydroxy-N-({(7RS)-4-[(2-oxo-2,3-dihydro-1,3-benzothiazol-6-yl)amino]-5,6,7,8-tetrahydro[1]benzothieno[2,3-d]pyrimidin-7-yl}methyl)propanamide] | 84 nM
4 | CC(C)S(=O)(=O)NCC1CCc2c(sc3ncnc(Nc4ccc5[nH]c(=O)sc5c4)c23)C1 (racemic) [Example 28, (RS)—N-({4-[(2-Oxo-2,3-dihydro-1,3-benzothiazol-6-yl)amino]-5,6,7,8-tetrahydro[1]benzothieno[2,3-d]pyrimidin-7-yl}methyl)propane-2-sulfonamide] | 139 nM
5 | CN1CCN(C(=O)C2CCc3c(sc4ncnc(Nc5ccc6[nH]c(=O)sc6c5)c34)C2)CC1 (racemic) [Example 29, (RS)-6-({7-[(4-Methylpiperazin-1-yl)carbonyl]-5,6,7,8-tetrahydro[1]benzothieno[2,3-d]pyrimidin-4-yl}amino)-1,3-benzothiazol-2(3H)-one] | 48 nM

The next molecules have a lower IC50 than those just listed; values first:

Row | IC50 | SMILES
6 | 37 nM | CC(C)C(=O)NCC1CCc2c(sc3ncnc(Nc4ccc5[nH]c(=O)sc5c4)c23)C1 (racemic) [Example 21, (RS)-2-Methyl-N-({4-[(2-oxo-2,3-dihydro-1,3-benzothiazol-6-yl)amino]-5,6,7,8-tetrahydro[1]benzothieno[2,3-d]pyrimidin-7-yl}methyl)propanamide]
7 | 42 nM | CC(C)(O)C(=O)NCC1CCc2c(sc3ncnc(Nc4ccc5[nH]c(=O)sc5c4)c23)C1 (racemic) [Example 25, (RS)-2-Hydroxy-2-methyl-N-({4-[(2-oxo-2,3-dihydro-1,3-benzothiazol-6-yl)amino]-5,6,7,8-tetrahydro[1]benzothieno[2,3-d]pyrimidin-7-yl}methyl)propanamide]
8 | 15 nM | CCOC(=O)C1CCc2c(sc3ncnc(Nc4cc5sc(=O)[nH]c5cc4OC)c23)C1 (racemic) [Example 30, (RS)-Ethyl 4-[(5-methoxy-2-oxo-2,3-dihydro-1,3-benzothiazol-6-yl)amino]-5,6,7,8-tetrahydro[1]benzothieno[2,3-d]pyrimidine-7-carboxylate]
9 | 4 nM | COc1cc2[nH]c(=O)sc2cc1Nc1ncnc2sc3c(c12)CCC(C(=O)NC(C)C)C3 (racemic) [Example 31]
10 | 20 nM | CCCCN(CC#N)C(=O)C1CCc2c(sc3ncnc(Nc4ccc5[nH]c(=O)sc5c4)c23)C1 (racemic) [Example 34, (RS)-N-butyl-N-(cyanonmethyl)-4-[(2-oxo-2,3-dihydro-1,3-benzothiazol-6-yl)amino]-5,6,7,8-tetrahydro[1]benzothieno[2,3-d]pyrimidine-7-carboxamide]
11 | 36 nM | CN(C)CCN(C)C(=O)C1CCc2c(sc3ncnc(Nc4ccc5[nH]c(=O)sc5c4)c23)C1 (racemic) [Example 35, (RS)-N-[2-(dimethylamino)ethyl]-N-methyl-4-[(2-oxo-2,3-dihydro-1,3-benzothiazol-6-yl)amino]-5,6,7,8-tetrahydro[1]benzothieno[2,3-d]pyrimidine-7-carboxamide]
